Laboratory results as given in US20250367189A1, “2-BROMO-LYSERGIC ACID DI[…] SUBSTANCE ABUSE” (Ceruvia Lifesciences LLC, priority 2020, published 2025).

Legend:
C57BL/6J mice = conditions: cited from earlier work
rodents = conditions: cited from earlier work
5HT1A receptors = target: T1, 5HT1A receptors (Homo sapiens, UniProt P08908); conditions: cited from earlier work
T1 sequence (P08908 1-422): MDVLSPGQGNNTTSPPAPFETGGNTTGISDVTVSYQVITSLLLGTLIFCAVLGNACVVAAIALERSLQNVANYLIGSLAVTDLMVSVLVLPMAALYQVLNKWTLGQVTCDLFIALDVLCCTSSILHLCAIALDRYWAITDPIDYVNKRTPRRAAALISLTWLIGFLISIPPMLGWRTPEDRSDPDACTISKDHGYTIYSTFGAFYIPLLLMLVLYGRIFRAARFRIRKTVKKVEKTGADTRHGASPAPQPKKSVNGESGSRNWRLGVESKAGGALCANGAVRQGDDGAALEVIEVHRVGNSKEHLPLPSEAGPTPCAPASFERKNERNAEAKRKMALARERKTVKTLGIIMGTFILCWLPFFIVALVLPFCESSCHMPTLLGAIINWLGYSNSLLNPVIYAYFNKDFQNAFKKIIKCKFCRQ

[1] = system: participants with alcohol dependence; conditions: single high-dose LSD session vs control, six trials; cited from earlier work
dopamine receptors = conditions: cited from earlier work
5HT2A receptors = 5HT2A receptors (Homo sapiens, UniProt P28223); conditions: cited from earlier work
Sequence of 5HT2A receptors (P28223 whole entry): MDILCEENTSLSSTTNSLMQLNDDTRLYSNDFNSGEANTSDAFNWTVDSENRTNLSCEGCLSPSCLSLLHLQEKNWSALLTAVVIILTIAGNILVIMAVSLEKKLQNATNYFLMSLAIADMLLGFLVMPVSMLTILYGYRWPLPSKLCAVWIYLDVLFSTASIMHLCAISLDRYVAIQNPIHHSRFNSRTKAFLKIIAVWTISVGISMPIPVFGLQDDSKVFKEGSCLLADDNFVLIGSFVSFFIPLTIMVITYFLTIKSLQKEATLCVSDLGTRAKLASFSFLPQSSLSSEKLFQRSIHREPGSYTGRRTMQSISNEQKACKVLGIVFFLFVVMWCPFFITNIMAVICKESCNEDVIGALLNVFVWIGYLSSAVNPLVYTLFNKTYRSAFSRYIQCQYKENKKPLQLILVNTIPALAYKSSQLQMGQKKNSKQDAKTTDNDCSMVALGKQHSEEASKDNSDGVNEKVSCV

male fosTRAP2×Ai14 mice = assay: Two-bottle choice (water vs 20% ethanol) drinking after ethanol exposure; assay type: in vivo; conditions: for ethanol preference, within-group mean difference week 1 vs. week 3: follow-up week 1 (after dose 1) vs week 3 (after dose 2); for ethanol consumption, mean difference Saline vs. treatment: planned contrast across 4 follow-up weeks, LSD 50 ug/kg or BOL-148 3.0 mg/kg intraperitoneal; for effect of treatment on alcohol preference (summary) / additive effect of a second dose on alcohol preference: summary in words; for additive effect of a second dose on alcohol preference: two doses, weeks 1 and 3
Source text: Twenty-five adult (12-30-week old), male fosTRAP2×Ai14 mice were bred in-house. Generation of the fosTRAP2 and FosTRAP lines were previously described (Guenthner, et al.). fosTRAP2 mice were crossed with Ai14 mice to obtain the mice used in this study. Mice were single-housed on a reverse light-dark cycle and given unlimited access to standard mouse chow and water. Animals were given a week to habituate to single housing, after which they were given free access to 2 bottles containing water and 20% ethanol for 24-hour periods beginning at the start of their dark cycle, 5 days per week (Monday-Friday) for 4 weeks (ethanol exposure). Amount of water and ethanol consumed (by volume and weight) were measured for each mouse across the final 5 days of the ethanol exposure period, and ethanol preference was counterbalanced across treatment group by the mean ethanol preference by weight (corrected for body weight) during this period.
Following 4 weeks of ethanol exposure, animals were administered one of 3 treatments via a single intraperitoneal injection 10 minutes prior to onset of the dark cycle/day one in a five-day cycle of alcohol exposure: saline, LSD 50 ug/kg, or BOL-148 3.0 mg/kg. Following administration of treatment, animals were placed back into their home cages with free access to standard mouse chow and water. After 10 minutes, 12 animals from each treatment group were given free access to 2 bottles containing water and 20% ethanol for 24 hours daily for 4 weeks (alcohol preference). Amount of water and ethanol consumed (by volume and weight) were measured daily at the end of the light cycle. Positions of bottles containing water and 20% ethanol were alternated daily to prevent the formation of place preference. An additional 2-4 animals per treatment group were given free access to standard mouse chow and water, and ambulatory activity as well as head-twitching behavior (thought to correspond with hallucinogenicity of substances in mice), was measured for 35 minutes following treatment.
For all hypotheses, data were analyzed using Mixed Models for Repeated Measures (MMRM), including fixed effects of Treatment (Saline, BOL, LSD), Week (1-4), Day (1-5), and two- and three-way interactions between Treatment and Day/Week. Repeated Effects were represented as a nested within-subjects variable (days within weeks). Data were analyzed separately for each of 3 dependent variables: ethanol consumption (mg and ml consumed), ethanol preference (ethanol consumption/total fluid consumption), and total fluid consumption (mg and ml consumed). For hypothesis 1a, a priori between-group comparisons are performed to contrast ethanol consumption, ethanol preference, and total fluid consumption between the vehicle- and LSD-treated groups. For hypothesis 1b, a priori between-group comparisons are performed to contrast ethanol consumption, ethanol preference, and total fluid consumption between the LSD-treated group at follow-up weeks 1 versus 3. For hypothesis 2a, a priori between-group comparisons are performed to contrast ethanol consumption, ethanol preference, and total fluid consumption between the vehicle- and BOL-148-treated groups. For hypothesis 2b, a priori between-group comparisons are performed to contrast ethanol consumption, ethanol preference, and total fluid consumption between the LSD- and BOL-148-treated groups. For each hypothesis, with 3 groups of 5-10 animals (total n=25) and 20 days of repeated measurements (autocorrelation=0.5), there is power of 0.8 to detect moderately-sized effects of approximately d=0.3 at alpha=0.05.

rats [2] = conditions: cited from earlier work
[3] = system: participants with alcoholism; conditions: 1 to 6 DPT sessions; cited from earlier work
[4] = system: participants with alcoholism; conditions: DPT treatment vs conventional treatment; cited from earlier work
humans = conditions: cited from earlier work
human participants = conditions: 0.03 mg/kg delivered daily; cited from earlier work
rats [5] = conditions: cited from earlier work; remark: listed apart in the source
[6] = in vivo; cited from earlier work
5-HT receptors = conditions: cited from earlier work
[7] = LSD 50 ug/kg or BOL-148 3.0 mg/kg IP

For `CCN(CC)C(=O)[C@@H]1C=C2c3cccc4[nH]cc(c34)C[C@H]2N(C)C1` [LSD, lysergic acid diethylamide], the “effect on alcohol consumption and alcohol preference” value (C57BL/6J mice; acute administration of 50 ug/kg LSD, C57BL/6J mice) is listed as “robust and lasting reduction”, the “duration of observation over which reduced ethanol consumption was shown” value (C57BL/6J mice; mice, 25 μg/kg LSD) is listed as 46 days and the “group mean reduction of ethanol consumption relative to controls” value (C57BL/6J mice; mice, 25 μg/kg LSD) is listed as 17.9%. For the same compound, the “range of doses that reliably produce accurate responding in a discrimination task or head twitch response” value (rodents) was 0.17 to 0.2 mg/kg, the “activity at 5HT1A receptors” value (5HT1A receptors) was “potent agonist” and the “odds of improvement at first post-treatment follow-up (OR)” value [1] was 1.96. For the same compound, the “activity at dopamine receptors” value (dopamine receptors) was “partial agonist”, the “activity at 5HT2A receptors” value (5HT2A receptors) was “partial agonist” and the “ethanol preference, mean difference LSD vs. BOL-148” value (male fosTRAP2×Ai14 mice; LSD 50 ug/kg versus BOL-148 3.0 mg/kg treated groups) was 0.081. The “ethanol preference, within-group mean difference week 1 vs. week 3” value (male fosTRAP2×Ai14 mice; [7]) was 0.014, the “ethanol consumption, mean difference Saline vs. treatment” value (male fosTRAP2×Ai14 mice) was 0.050 mg total ethanol consumed/mg of body weight and the “ethanol preference (ethanol consumption/total fluid consumption), mean difference Saline vs. treatment” value (male fosTRAP2×Ai14 mice; planned contrast across follow-up, LSD 50 ug/kg or BOL-148 3.0 mg/kg IP) was 0.168. The “ethanol consumption, mean difference Saline vs. LSD, Week 1” value (male fosTRAP2×Ai14 mice; post-hoc, Week 1 (injection week), LSD 50 ug/kg IP) was 0.062 mg total ethanol consumed/mg of body weight, the “ethanol consumption, mean difference Saline vs. LSD, Week 2” value (male fosTRAP2×Ai14 mice; post-hoc, Week 2 (non-injection week), LSD 50 ug/kg IP) was 0.077 mg total ethanol consumed/mg of body weight and the “ethanol consumption, mean difference Saline vs. LSD, Week 3” value (male fosTRAP2×Ai14 mice; post-hoc, Week 3 (injection week), LSD 50 ug/kg IP) was −0.029 mg total ethanol consumed/mg of body weight. For the same compound, the “ethanol consumption, mean difference Saline vs. LSD, Week 4” value (male fosTRAP2×Ai14 mice; post-hoc, Week 4 (non-injection week), LSD 50 ug/kg IP) was 0.089 mg total ethanol consumed/mg of body weight, the “effect of treatment on alcohol preference (summary)” value (male fosTRAP2×Ai14 mice) was “becomes apparent immediately, and remains stable for weeks” and the “additive effect of a second dose on alcohol preference” value (male fosTRAP2×Ai14 mice) was “An additive effect was not found”.

For `COc1cc(CC(C)N)c(OC)cc1I` (stereo not shown) [DOI, 2,5-dimethoxy-4-iodoamphetamine], the “effect on alcohol preference” value (rats [2]) is given as “reduce alcohol preference”.

In the case of `CCCN(CCC)CCc1c[nH]c2ccccc12` [DPT, Dipropyltryptamine], the “clinical outcomes including abstinence at 6 months” value [3] is given as “highly significant improvement” and the “clinical outcomes at 6 month follow-up vs other groups” value [4] is given as “no significant differences”.

In the case of `CCN(CC)C(=O)[C@@H]1C=C2c3cccc4[nH]c(Br)c(c34)C[C@H]2N(C)C1` [BOL-148, 2-bromo-lysergic acid diethylamide], the “blockade of the effects of LSD in humans” value (humans) is given as “could block the effects of LSD”, the “effect on cluster headaches” value (human participants) is given as “effective at reducing cluster headaches” and the “blockade of the effects of LSD by pre-treatment” value (rats [5]) is given as “will not block the effects of LSD”. The psychedelic activity [6] was “inactive as a psychedelic”, the “activity at 5HT2A receptors” value (5HT2A receptors) was 5HT2A antagonist activity and the “effect on 5-HT receptors” value (5-HT receptors) was “neutral antagonist”. For the same compound, the “ethanol preference, within-group mean difference week 1 vs. week 3” value (male fosTRAP2×Ai14 mice; [7]) was 0.119, the “ethanol consumption, mean difference Saline vs. treatment” value (male fosTRAP2×Ai14 mice) was 0.004 mg total ethanol consumed/mg of body weight and the “effect of treatment on alcohol preference (summary)” value (male fosTRAP2×Ai14 mice) was “modest effect”. For the same compound, the “additive effect of a second dose on alcohol preference” value (male fosTRAP2×Ai14 mice) was “an additive effect of BOL-148 was found”.
